Reference: ChEMBL document CHEMBL4823280, “Efficient Synthesis of Icetexane Diterpenes and Apoptosis Inducing Effect by Upregulating BiP-ATF4-CHOP Axis in Colorectal Cells” (J Nat Prod, 2021)
Calls of active or inactive are those of the source. The calls are words filed in the database; no cut-off is given here.

How the values were obtained:
HCT-116 [1] = assay: Cytotoxicity against human HCT-116 cells assessed as reduction in cell viability measured after 48 hrs by MTT assay; assay type: functional, cell-based; settings: HCT-116, 48 h
COLO 205 = assay: Cytotoxicity against human COLO 205 cells assessed as reduction in cell viability measured after 48 hrs by MTT assay; assay type: functional, cell-based; settings: COLO 205, 48 h
Caco-2 = assay: Cytotoxicity against human Caco-2 cells assessed as reduction in cell viability measured after 48 hrs by MTT assay; assay type: functional, cell-based; settings: Caco-2, 48 h
HCT-116 [2] = assay: Induction of apoptosis in human HCT-116 cells assessed as necrotic cells at 10 uM measured after 24 hrs by Annexin V-FITC/PI staining based flow cytometry analysis (Rvb= 1.18%); assay type: functional
HCT-116 [3] = assay: Induction of apoptosis in human HCT-116 cells assessed as early apoptotic cells at 10 uM measured after 24 hrs by Annexin V-FITC/PI staining based flow cytometry analysis (Rvb= 7.48%); assay type: functional
HCT-116 [4] = assay: Induction of ER stress in human HCT-116 cells assessed as upregulation of ATF4 expression at 5 to 20 uM measured after 6 hrs by western blotting analysis; assay type: functional, cell-based; settings: dose 5-20 µM
HCT-116 [5] = assay: Inhibition of colony formation in human HCT-116 cells at 1.25 to 10 uM incubated for 14 days by crystal violet staining based analysis; assay type: functional, cell-based; settings: dose 1.25-10 µM, time 14.0 day
HCT-116 [6] = assay: Induction of apoptosis in human HCT-116 cells assessed as viable cells at 10 uM measured after 24 hrs by Annexin V-FITC/PI staining based flow cytometry analysis (Rvb= 88.45%); assay type: functional; settings: read-out: Activity
HCT-116 [7] = assay: Induction of ER stress in human HCT-116 cells assessed as colocalization of BiP with ATF4 at 20 uM measured after 12 hrs by immunofluorescence staining analysis; assay type: functional, cell-based
HCT-116 [8] = assay: Induction of apoptosis in human HCT-116 cells assessed as early apoptotic cells at 5 uM measured after 24 hrs by Annexin V-FITC/PI staining based flow cytometry analysis (Rvb= 7.48%); assay type: functional
HCT-116 [9] = assay: Induction of ER stress in human HCT-116 cells assessed as upregulation of CHOP expression at 5 to 20 uM measured after 6 hrs by western blotting analysis; assay type: functional, cell-based; settings: dose 5-20 µM
HCT-116 [10] = assay: Induction of ER stress in human HCT-116 cells assessed as increase in BiP nuclear translocation at 2.5 to 10 uM measured after 6 hrs by DAPI based immunostaining analysis; assay type: functional, cell-based; settings: dose 2.5-10 µM
HCT-116 [11] = assay: Induction of apoptosis in human HCT-116 cells assessed as late apoptotic cells at 10 uM measured after 24 hrs by Annexin V-FITC/PI staining based flow cytometry analysis (Rvb= 2.89%); assay type: functional
HCT-116 [12] = assay: Induction of apoptosis in human HCT-116 cells assessed as late apoptotic cells at 5 uM measured after 24 hrs by Annexin V-FITC/PI staining based flow cytometry analysis (Rvb= 2.89%); assay type: functional
HCT-116 [13] = assay: Induction of ER stress in human HCT-116 cells assessed as increase in BiP protein expression measured after 6 hrs by western blotting analysis; assay type: functional, cell-based; settings: dose 5-20 µM
HCT-116 [14] = assay: Induction of apoptosis in human HCT-116 cells assessed as viable cells at 5 uM measured after 24 hrs by Annexin V-FITC/PI staining based flow cytometry analysis (Rvb= 88.45%); assay type: functional; settings: read-out: Activity
HCT-116 [15] = assay: Induction of apoptosis in human HCT-116 cells assessed as necrotic cells at 5 uM measured after 24 hrs by Annexin V-FITC/PI staining based flow cytometry analysis (Rvb= 1.18%); assay type: functional
[16] = Stability of the compound in human HCT-116 cells assessed as Demethylsalvicanol-Quione formation measured after 72 hrs by HPLC analysis; assay type: ADME, cell-based; settings: hct-116, 72 h

Compound	IC50 (HCT-116 [1]) [µM]	IC50 (COLO 205) [µM]	IC50 (Caco-2) [µM]	further results
CC(C)C1=CC2=C(C[C@@]34CCCC(C)(C)[C@@H]3C[C@@H]2O4)C(=O)C1=O	13.3	10.4	3.86	
CC(C)c1cc2c(c(O)c1O)C[C@@]13CCCC(C)(C)[C@@H]1C[C@@H]2O3 [BRUSSONOL]	> 20.2	> 20.2	> 20.2	
CC(=O)Oc1c(C(C)C)cc2c(c1OC(C)=O)CC1=CCCC(C)(C)[C@@H]1CC2	18.6	18.5	10.4	
CC(C)c1cc2c(c(O)c1O)CC1=CCCC(C)(C)[C@@H]1CC2	> 20.9	> 20.9	13.7	
CC(C)c1cc2c(c(O)c1O)C[C@@]1(O)CCCC(C)(C)[C@@H]1CC2	18.8	11.2	3.07	
CC(C)c1cc2c(c(O)c1O)C=C1C=CCC(C)(C)[C@@H]1CC2	10.6	7.81	7.2	
O=c1[nH]cc(F)c(=O)[nH]1 [FLUOROURACIL]	7.38	5.29	7.77	
CC(=O)Oc1c(C(C)C)cc2c(c1OC(C)=O)C[C@@]13O[C@@H]1CCC(C)(C)[C@@H]3CC2	11.1	7.52	13.8	
CC(C)C1=CC2=C(C[C@@]3(O)CCCC(C)(C)[C@@H]3CC2)C(=O)C1=O	2.93	3.18	2.71	
CC(C)c1cc2c(c3c1O[C@@]1(C(C)C)C(=O)C(=O)C4=C(CC[C@H]5C(C)(C)CCC[C@]5(O)C4)[C@H]1O3)C[C@@]1(O)CCCC(C)(C)[C@@H]1CC2	2.7	3.39	2.69	Activity (HCT-116 [2]): 7.97%; Activity (HCT-116 [3]): 13.38%; Activity (HCT-116 [4]): Active; inhibition (HCT-116 [5]): Active; viability at 10 µM (HCT-116 [6]): 58.8%; Activity (HCT-116 [7]): Active; Activity (HCT-116 [8]): 14.73%; Activity (HCT-116 [9]): Active; Activity (HCT-116 [10]): Active; Activity (HCT-116 [11]): 19.84%; Activity (HCT-116 [12]): 16.43%; Activity (HCT-116 [13]): Dose-Dependent Effect; viability at 5 µM (HCT-116 [14]): 63.6%; Activity (HCT-116 [15]): 5.28%; Stabilty [16]: Stable
